Measurements as given in patent US20250144050A1, “AMINOTHIOL-CONJUGATES, COMPOSITIONS, AND METHODS OF USE THEREOF” (THE BURLINGTON HC RESEARCH GROUP, INC., priority 2021, published 2025).
Read-outs that look alike come from different tables or passages of the source.

Tests used:
human cancer cell lines = test: CyQUANT cell viability assay, 48-hour exposure, panel averages; settings: for fold greater cytostatic effect than amifostine: HCC38, PC3, SKOV3, TOV21G (amifostine GI50 <100 μM); for fold more potent than amifostine as a cytostatic agent, averaging: averages of dose-response metrics across panel
Description: (§1) After drug treatments, fluorescence readings from 96-well plates were obtained using the CyQUANT dye and compared to standard curves for each cell line to determine cell viability. […] Trypan blue exclusion was used to estimate cell numbers in a few pilot experiments and was thereafter applied to confirm cell death.
(§2) A series of experiments was conducted to assess the relative efficacy of 4SP65, 1LP65, and amifostine as single agents in the same human cancer cell lines. First, the effectiveness of 4SP65 was tested against 15 cancer cell lines derived from seven tissues. […] The effectiveness of 0 to ≤500 μM amifostine was tested in sets of cancer cell lines reported to have either medium, high, or no expression of alkaline phosphatase.
(§3) Trans. R Soc. Lond. […] Using cell numbers based on fluorescence measurements and standard curves [time zero, (Tz), control growth, (C), and test growth in the presence of drug at five or more concentration levels (Ti)], the percentage growth was calculated at each drug concentration level. The percentage of growth inhibition was calculated as follows:
(§4) The LC50/99 was calculated using Equation 2=−50 and Eq. 2=−99, respectively. […] For NHMECs, the relationships between drug exposure levels and fluorescence units were used to define dose-response metrics. The selectivity index (SI) values for individual drug treatments were calculated as IC50 levels in NHMECs divided by the IC50 values in cancer cell lines.

Vero cells = test: Dose-response metrics in immortalized, non-tumorigenic cells; assay type: cell-based
Description: To determine potential cytostatic or cytocidal effects of BRG prodrugs in immortalized, non-tumorigenic cells, Vero, HEK-293t, LP9, and HPM3 cells were exposed to 4SP65 while only Vero cells also were treated with 1LP65. […] Comparisons across other dose-response metrics could not be made because such levels of effects were not induced in NHMECs exposed to 4SP65. […] Since cytostatic and cytolytic effects at the TGI and LC50/99 levels were induced in Vero cells exposed to 1LP65 but not in NHMECs, there is a significant difference in the effects of 1LP65 in Vero cells compared to NHMECs, but p values based upon t-test evaluations cannot be defined due to lack of numerical data.

[1] = tested on: normal human mammary epithelial cells (NHMECs); test: Growth of NHMEC strains after 48-hour exposure; assay type: cell-based; settings: for average effect per unit dose (% growth÷exposure concentration) / average effect per unit dose: NHMECs; for growth relative to control cells: 48-hour; for cell growth as % of control cell values: highest drug level 500 μM
Source text: Normal human mammary epithelial cell (NHMEC) strains used to assess potential cytotoxicity of 4SP65/1LP65 were established from reduction mammoplasty tissue from a healthy donor (#M99005 or ‘Strain-1’) (Keshava et al., “Induction of CYP1A1 and CYP1B1 and Formation of Carcinogen-DNA Adducts in Normal Human Mammary Epithelial Cells Treated with Benzo[a]pyrene,” Cancer Lett. 221 (2): 213-24 (2005), which is hereby incorporated by reference in its entirety) or purchased from ATCC (Manassas, VA, USA; batch #70043304 or ‘Strain-2’) or Cell Applications (San Diego, CA, USA; lot #1669 or ‘Strain-3’). Human cancer cell lines including HCC38 (Cat #CRL2314™), MDA-MB-231 (Cat #HTB-26™), A549/ATCC (Cat #CL-185™), National Cancer Institute (NCI)-H460 (Cat #HTB177™), NCI-H1437 (Cat #CRL-5872™), NCI-H1975 (Cat #CRL-5908™), DU145 (Cat #HTB-81™), LNCaP (Cat #CRL-1740™), PC3 (Cat #CRL-1435™), PANC1 (Cat #CRL-1469™), SKOV3 (Cat #HTB-75™), and HL60 (Cat #CCL-240™), which were free of mycoplasma, were purchased from ATCC. HMESO1 (CLS Cell Lines Service GmbH, Cat #BHC11100791), PPMMill, and TOV21G cells (ATTC Cat #CRL-11730), obtained from Dr. Brian Cunniff, were verified to be Mycoplasma negative using the LookOutR Mycoplasma PCR Detection Kit (Sigma-Aldrich, Cat #MP0035) and to match previously annotated DNA fingerprints by the Vermont Integrative Genomics Resource DNA Analysis Facility.
To assess the effects of 4SP65 on the growth of normal epithelium, experiments were performed using NHMEC strains from three donors (Keshava et al., “Induction of CYP1A1 and CYP1B1 and Formation of Carcinogen-DNA Adducts in Normal Human Mammary Epithelial Cells Treated with Benzo[a]pyrene,” Cancer Lett. 221 (2): 213-24 (2005), which is hereby incorporated by reference in its entirety). Strain-1 NHMECs were plated at 5,000 cells/well in 24-well dishes and allowed to reach 50% confluence before treatment with 0-300 μM 4SP65 for 48 hours. Cell viability was determined using a hemocytometer and trypan blue exclusion assay. Two other NHMEC strains, exposed to 0-150 μM 4SP65 or 0-500 μM 1LP65, were handled in the same fashion except that viability of cells in 96-well plates was determined using CyQUANT dye.

MDA-MB-231 cells = test: CyQUANT cell viability assay, 48-hour exposure; assay type: cell-based, human
Description: as §1, §2, §3, §4

[2] = 48-hour, 15 cancer cell lines (4SP65), 11 (1LP65)

In the case of 4-star PEG-S-S-WR1065 [4SP65], the “fold greater potency than predicted by ratio of four vs one WR1065/molecule” value (human cancer cell lines; 4SP65 versus 1LP65) is reported as ~2.5 fold, the “LC99, average across cell lines” value (human cancer cell lines; [2]) is reported as 11.2 µM and the “LC99, range” value (human cancer cell lines; [2]) is reported as 3.0 to 21.1 µM. For the same compound, the “TGI, average across cell lines” value (human cancer cell lines; [2]) was 6.8 ± 1.1 µM, the “TGI, range” value (human cancer cell lines; [2]) was 2.0 to 16.3 µM and the “fold greater cytostatic effect than amifostine” value (human cancer cell lines) was 38 fold. For the same compound, the “fold more potent than 1LP65, averaging” value (human cancer cell lines; across dose-response metrics) was 10.4 fold, the “fold more potent than amifostine as a cytostatic agent, averaging” value (human cancer cell lines) was 55 fold and the GI50 (human cancer cell lines; read-out: GI50, average across cell lines, 48-hour, 15 cancer cell lines (4SP65), 11 (1LP65)) was 4.1 ± 0.8 µM. The GI50 (human cancer cell lines; read-out: average GI50, HCC38, PC3, SKOV3, and TOV21G) was 1.7 µM, the CC50 (Vero cells) was 11.6 ± 6.3 µM and the GI50 (Vero cells; VERO) was 2.9 ± 1.4 µM. For the same compound, the LC99 (Vero cells; VERO) was 14.0 ± 9.9 µM, the TGI (Vero cells; VERO) was 6.4 ± 2.6 µM and the “average effect per unit dose (% growth÷exposure concentration)” value ([1]; 9 μM) was 8.7. For the same compound, the “average effect per unit dose (% growth÷exposure concentration)” value ([1]; 30 μM) was 1.70, the “average effect per unit dose (% growth÷exposure concentration)” value ([1]; 90 μM) was 0.23 and the “average effect per unit dose (% growth÷exposure concentration)” value ([1]; 150 μM) was 0.058. The “growth compared to sham-exposed control cells” value ([1]; Strain-1, 5 μM, 48 hours) was 336%, the “growth compared to sham-exposed control cells” value ([1]; Strain-1, 15 μM, 48 hours) was 286% and the “growth as % of control cell growth” value ([1]; Strain-1, 50 μM, 48 hours) was 68%. The growth pattern ([1]; Strain-1, 150 μM, 48 hours) was “re-established a predominant pattern of growth enhancement”, the IC50 ([1]; Strain-1 and Strain-2 NHMECs) was “could not be calculated or predicted” and the GI50 ([1]; Strain-1 and Strain-2 of NHMECs) was “could not be calculated or predicted”. The “growth relative to control cells” value ([1]; Strain-2 and Strain-3, 3 μM) was 162%±7%, the “growth relative to control cells” value ([1]; Strain-2 and Strain-3, 9 μM) was 78%±12% and the “growth relative to control cells” value ([1]; Strain-2 and Strain-3, 30 μM) was 52%±8%. For the same compound, the “growth relative to control cells” value ([1]; Strain-2 and Strain-3, 50 μM (so in the source)) was 21%±4%, the “growth relative to control cells” value ([1]; Strain-2 and Strain-3, 150 μM) was 8.7%±2% and the IC50 ([1]; Strain-3 cells, 48 hours, read-out: IC50) was 76 ± 14 µM. The GI50 ([1]; strain 3 of NHMECs, read-out: GI50) was 41.4 ± 6.2 µM and the selectivity index (MDA-MB-231 cells; IC50 of 76 in most sensitive NHMEC strain / IC50 in MDA-MB-231) was > 16.
`COCCOCCOCCOCCOCCOCCSSCCNCCCN` [1LP65, m-PEG6-S-S-WR1065] was tested, and the “LC99, average across cell lines” value (human cancer cell lines; [2]) was 126 ± 15.8 µM, the “LC99, range” value (human cancer cell lines; [2]) was 83.5 to 234 µM and the “TGI, average across cell lines” value (human cancer cell lines; [2]) was 69.3 ± 10.3 µM. For the same compound, the “TGI, range” value (human cancer cell lines; [2]) was 32.7 to 126 µM, the “fold greater cytostatic effect than amifostine” value (human cancer cell lines) was 2.1 fold and the GI50 (human cancer cell lines; Homo sapiens, 48 h, read-out: GI50, average across cell lines, 48-hour, 15 cancer cell lines (4SP65), 11 (1LP65)) was 41.2 ± 5.4 µM. The GI50 (human cancer cell lines; Homo sapiens, 48 h, read-out: GI50, range for individual cell lines, 48-hour, 15 cancer cell lines (4SP65), 11 (1LP65)) was 21.3 to 77.7 µM, the CC50 (human cancer cell lines; Homo sapiens, 48 h, read-out: LC50, average across cell lines) was 94.6 ± 12.8 µM and the CC50 (human cancer cell lines; Homo sapiens, 48 h, read-out: LC50, range) was 51.3 to 157 µM. For the same compound, the GI50 (human cancer cell lines; Homo sapiens, read-out: average GI50, HCC38, PC3, SKOV3, and TOV21G) was 30.4 µM, the “fold more potent than amifostine as a cytostatic agent, averaging” value (human cancer cell lines) was 5.9 fold and the GI50 (Vero cells; Chlorocebus sabaeus, Vero) was 46.6 ± 2.6 µM. For the same compound, the LC99 (Vero cells; VERO) was 183.4 ± 6.2 µM, the TGI (Vero cells; VERO) was 82.8 ± 2.9 µM and the “cytotoxicity in NHMECs” value ([1]; 500 μM) was “not cytotoxic”. The IC50 ([1]; Homo sapiens, Epithelial cell, 48 h, Strain-2 cells, 48 hours, read-out: IC50) was > 500 µM, the IC50 ([1]; Homo sapiens, Epithelial cell, 48 h, Strain-3 cells, 48 hours, read-out: IC50) was 210 µM and the IC50 ([1]; Homo sapiens, Epithelial cell, Strain-2 and Strain-3, read-out: IC50, averaging over strains) was > 355 µM. For the same compound, the “average effect per unit dose (% growth÷exposure concentration)” value ([1]; 90 μM) was 2.9, the “average effect per unit dose (% growth÷exposure concentration)” value ([1]; 150 μM) was 0.31 and the “average effect per unit dose” value ([1]; 300 μM) was 0.06. The “average effect per unit dose” value ([1]; 500 μM) was 0.03, the “cell growth as % of control cell values” ([1]; Strain-2, 48 hours) was 19.5% and the “cell growth as % of control cell values” ([1]; Strain-3, 48 hours) was 12.5%. The GI50 (MDA-MB-231 cells; Homo sapiens, MDA-MB-231 cells, 48 hours) was 41.8 µM.
